Assay results taken from patent US9233099B2, “Methods of treating cognitive dysfunction by modulating brain energy metabolism” (University of Cincinnati, priority 2012, dated 2016).

Key:
[1] = system: person with X-linked creatine transporter deficiency (CTD); assay: Creatine treatment of a child with X-linked creatine transporter deficiency; type: in vivo, human; conditions: increasing doses to 750 mg/kg/day, discontinued after 6 months
From the text: This example illustrates that administration of creatine to a person with X-linked creatine transporter deficiency (CTD) fails to increase brain creatine or to ameliorate clinical symptoms associated with decreased brain levels of creatine. […] Several female family members were identified as heterozygote carriers of this disorder, and appear to have decreased Cr. The child had severe expressive dysphasia with other cognitive functions less affected. […] In the absence of demonstrable benefit, the creatine treatment was discontinued after 6 months.

[2] = system: CRT KO mice; assay: Novel Object Recognition test; type: in vivo; conditions: before and after 9-week supplementation, 0.286 mg/g body weight/day
From the text: Regarding FIG. 3, CRT brain-specific knockout male mice (CRT′ or CRT KO mice) and their control littermates (CrTf1″5″) were generated by the methods known in the art (e.g., by using the Cre-lox system and homologous recombination as described in Sauer B., Methods, 1998, 14, 381-392; the strategy for targeting the gene deletion to the brain region was based on the data described in Casanova E. et al., Genesis 2001, 31, 37-42). […] A total 29 CRT KO male mice (CRT^/y) and 28 control male mice (CRT^flox/y) at 12 months of age were used in the cyclocreatine supplementation study. The mice were randomly assigned to one of three groups that were started on one of three treatments for 9 weeks: 1) cyclocreatine (C-Cr, CRT KO=7, control=5), 2) creatine (Cr, CRT KO=5, control=5), and 3) maltodextrine as placebo (P, CRT KO=5, control=5). Each treatment drug was supplied in the drinking water and the concentration was adjusted to 0.286 mg/g body weight/day, corresponding to the standard dose of creatine for human subjects (20 g/70 kg body weight/day). Short-term memory of CRT KO mice and their control littermates before and after 9-week cyclocreatine supplementation was measured using the Novel Object Recognition test that is routinely used in the art for evaluation of cognition in rodent models of the disorders of the central nervous system. […]

[3] = target: T1, creatine transporter (Homo sapiens, UniProt P48029); conditions: normal human monocytes and macrophages; read-out: Km of creatine transport; cited from earlier work
T1 construct: endogenous in cells; host or cells: normal human monocytes and macrophages
T1 sequence (P48029 1-635): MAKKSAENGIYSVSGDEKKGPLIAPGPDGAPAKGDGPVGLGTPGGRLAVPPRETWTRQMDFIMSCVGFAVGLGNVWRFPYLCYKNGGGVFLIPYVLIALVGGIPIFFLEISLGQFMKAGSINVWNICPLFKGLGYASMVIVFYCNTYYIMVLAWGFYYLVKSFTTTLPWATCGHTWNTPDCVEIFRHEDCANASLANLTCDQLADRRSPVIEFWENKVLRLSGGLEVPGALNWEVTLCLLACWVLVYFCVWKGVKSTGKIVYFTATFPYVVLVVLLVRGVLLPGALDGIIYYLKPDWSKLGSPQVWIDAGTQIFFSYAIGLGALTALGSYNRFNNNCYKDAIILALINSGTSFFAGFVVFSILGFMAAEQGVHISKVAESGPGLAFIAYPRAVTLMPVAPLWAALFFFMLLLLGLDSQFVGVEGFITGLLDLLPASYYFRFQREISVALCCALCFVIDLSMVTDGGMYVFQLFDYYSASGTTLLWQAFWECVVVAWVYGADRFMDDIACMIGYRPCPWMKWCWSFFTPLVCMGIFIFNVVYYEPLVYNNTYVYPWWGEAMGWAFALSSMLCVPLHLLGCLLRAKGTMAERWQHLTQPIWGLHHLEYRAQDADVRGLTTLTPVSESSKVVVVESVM

[4] = system: CRT KO mice; assay: Levels of cyclocreatine in the brain after supplementation; type: in vivo; conditions: 9 weeks supplementation in drinking water, 0.286 mg/g body weight/day
From the text: Regarding FIG. 3, CRT brain-specific knockout male mice (CRT′ or CRT KO mice) and their control littermates (CrTf1″5″) were generated by the methods known in the art (e.g., by using the Cre-lox system and homologous recombination as described in Sauer B., Methods, 1998, 14, 381-392; the strategy for targeting the gene deletion to the brain region was based on the data described in Casanova E. et al., Genesis 2001, 31, 37-42). […] A total 29 CRT KO male mice (CRT^/y) and 28 control male mice (CRT^flox/y) at 12 months of age were used in the cyclocreatine supplementation study. The mice were randomly assigned to one of three groups that were started on one of three treatments for 9 weeks: 1) cyclocreatine (C-Cr, CRT KO=7, control=5), 2) creatine (Cr, CRT KO=5, control=5), and 3) maltodextrine as placebo (P, CRT KO=5, control=5). […] Levels of cyclocreatine and creatine in the organs of CRT KO mice and their control littermates before cyclocreatine supplementation were measured by the methods known in the art (e.g., creatine content was measured as described in Conn R., Clin. Chem., 1960, 6, 537-548; and cyclocreatine content was measured as described in Griffith G. R., J Biol. Chem. 1976, 251(7), 2049-2054). […] Data is expressed as mean±SE. §P≦0.0001, §§P<0.00001.

[5] = system: CRT KO mice; assay: Phosphorylated metabolites in the brain by in vivo magnetic resonance spectroscopy; conditions: after 9 weeks supplementation, in vivo MRS
From the text: Regarding FIG. 3, CRT brain-specific knockout male mice (CRT′ or CRT KO mice) and their control littermates (CrTf1″5″) were generated by the methods known in the art (e.g., by using the Cre-lox system and homologous recombination as described in Sauer B., Methods, 1998, 14, 381-392; the strategy for targeting the gene deletion to the brain region was based on the data described in Casanova E. et al., Genesis 2001, 31, 37-42). […] A total 29 CRT KO male mice (CRT^/y) and 28 control male mice (CRT^flox/y) at 12 months of age were used in the cyclocreatine supplementation study. The mice were randomly assigned to one of three groups that were started on one of three treatments for 9 weeks: 1) cyclocreatine (C-Cr, CRT KO=7, control=5), 2) creatine (Cr, CRT KO=5, control=5), and 3) maltodextrine as placebo (P, CRT KO=5, control=5). Each treatment drug was supplied in the drinking water and the concentration was adjusted to 0.286 mg/g body weight/day, corresponding to the standard dose of creatine for human subjects (20 g/70 kg body weight/day). The levels of phosphorylated metabolites in the brains of the CRT KO and their control littermates were measured by in vivo magnetic resonance spectroscopy using the procedures well known in the art. […] Data is expressed as mean±SE,*P≦0.05, **P≦0.01.

[6] = system: CRT KO mice; assay: Morris Water Maze test; type: in vivo
From the text: Regarding FIG. 3, CRT brain-specific knockout male mice (CRT′ or CRT KO mice) and their control littermates (CrTf1″5″) were generated by the methods known in the art (e.g., by using the Cre-lox system and homologous recombination as described in Sauer B., Methods, 1998, 14, 381-392; the strategy for targeting the gene deletion to the brain region was based on the data described in Casanova E. et al., Genesis 2001, 31, 37-42). […] A total 29 CRT KO male mice (CRT^/y) and 28 control male mice (CRT^flox/y) at 12 months of age were used in the cyclocreatine supplementation study. The mice were randomly assigned to one of three groups that were started on one of three treatments for 9 weeks: 1) cyclocreatine (C-Cr, CRT KO=7, control=5), 2) creatine (Cr, CRT KO=5, control=5), and 3) maltodextrine as placebo (P, CRT KO=5, control=5). […] Spatial learning and memory in the CRT KO mice and their control littermates before and after 9-week cyclocreatine supplementation was measured by the Morris Water Maze test, a procedure routinely used in behavioral neuroscience to study spatial learning and memory. […] The mouse swims around the pool in search of an exit while various parameters are recorded, e.g., the time spent in each quadrant of the pool and the time taken to reach the platform (latency). […] Data is expressed as mean±SE, *P≦0.05.

Row | levels of cyclocreatine in the brains [4] | Structure (SMILES) | clinical or spectroscopic (1H MRS) improvement [1] | short-term memory (discrimination index) [2] | Km [3] [µM] | levels of cyclocreatine and/or creatine phosphate in the brain (peak height ratio) [5] | spatial learning and memory ([6]; before and after 9-week supplementation) | latency in finding hidden platforms ([6]; versus placebo treated CRT KO mice)
1 | – | CN(CC(=O)O)C(=N)N [creatine] | without clinical or spectroscopic (^1H MRS) improvement | no significant changes | ~30 | – | – | –
2 | increased | NC1=NCCN1CC(=O)O [cyclocreatine] | – | normalizes the short-term memory | – | increases the levels of cyclocreatine and/or creatine phosphate | improves spatial learning and memory | shorter latency
